Activity calls are given as the source filed them. The rule behind the calls is not given here.

The subject of the data set is CCRIS mutagenicity, Ames/micronucleus/aberration tests. The experiment in a line: CCRIS mutagenicity studies.
The mark [1] stands for this setting: Test System: AMES SALMONELLA TYPHIMURIUM, Strain/Indicator: TA98, Metabolic Activation: NONE, Method: PREINCUBATION
Where [2] appears, read: Test System: AMES SALMONELLA TYPHIMURIUM, Strain/Indicator: TA100, Metabolic Activation: NONE, Method: STANDARD PLATE.
Setting [3] is: Test System: AMES SALMONELLA TYPHIMURIUM, Strain/Indicator: TA1537, Metabolic Activation: NONE, Method: STANDARD PLATE.

For the molecule `COc1cc(-c2ccc(N/N=C3\C=C(S(=O)(=O)O)c4ccccc4C3=O)c(OC)c2)ccc1N/N=C1/C=C(S(=O)(=O)O)c2ccccc2C1=O`, the mutagenic call by setting is: (Test System: AMES SALMONELLA TYPHIMURIUM, Strain/Indicator: TA98, Metabolic Activation: HAMSTER, LIVER, S-9, AROCLOR 1254 (10%), Method: PREINCUBATION) “inactive; negative”; under setting [1], “inactive; negative”; (Test System: AMES SALMONELLA TYPHIMURIUM, Strain/Indicator: TA98, Metabolic Activation: RAT, LIVER, S-9, AROCLOR 1254 (10%), Method: PREINCUBATION) “inactive; negative”; (Test System: AMES SALMONELLA TYPHIMURIUM, Strain/Indicator: TA100, Metabolic Activation: HAMSTER, LIVER, S-9, AROCLOR 1254 (10%), Method: PREINCUBATION) “inactive; negative”; (Test System: AMES SALMONELLA TYPHIMURIUM, Strain/Indicator: TA100, Metabolic Activation: NONE, Method: PREINCUBATION) “inactive; negative”; (Test System: AMES SALMONELLA TYPHIMURIUM, Strain/Indicator: TA100, Metabolic Activation: RAT, LIVER, S-9, AROCLOR 1254 (10%), Method: PREINCUBATION) “inactive; negative”. Also, the mutagenic call runs as follows: (Test System: AMES SALMONELLA TYPHIMURIUM, Strain/Indicator: TA1535, Metabolic Activation: HAMSTER, LIVER, S-9, AROCLOR 1254 (10%), Method: PREINCUBATION) “inactive; negative”; (Test System: AMES SALMONELLA TYPHIMURIUM, Strain/Indicator: TA1535, Metabolic Activation: NONE, Method: PREINCUBATION) “inactive; negative”; (Test System: AMES SALMONELLA TYPHIMURIUM, Strain/Indicator: TA1535, Metabolic Activation: RAT, LIVER, S-9, AROCLOR 1254 (10%), Method: PREINCUBATION) “inactive; negative”; (Test System: AMES SALMONELLA TYPHIMURIUM, Strain/Indicator: TA1537, Metabolic Activation: HAMSTER, LIVER, S-9, AROCLOR 1254 (10%), Method: PREINCUBATION) “inactive; negative”; (Test System: AMES SALMONELLA TYPHIMURIUM, Strain/Indicator: TA1537, Metabolic Activation: NONE, Method: PREINCUBATION) “inactive; negative”; (Test System: AMES SALMONELLA TYPHIMURIUM, Strain/Indicator: TA1537, Metabolic Activation: RAT, LIVER, S-9, AROCLOR 1254 (10%), Method: PREINCUBATION) “inactive; negative”. Moreover, the mutagenic call (Test System: AMES SALMONELLA TYPHIMURIUM, Strain/Indicator: TA1538, Metabolic Activation: RAT, LIVER, S-9, AROCLOR 1254, Method: STANDARD PLATE) is “inactive; negative”.

For `O=[N+]([O-])c1cccc(S(=O)(=O)OC[C@@H]2CO2)c1`, the mutagenic call under setting [2] was “active; positive”.

Turning to `O=C(Nc1nc(-c2ccc([N+](=O)[O-])o2)cs1)C(F)(F)F`, the mutagenic call reads like this: (Test System: AMES SALMONELLA TYPHIMURIUM, Strain/Indicator: TA100, Metabolic Activation: RAT, LIVER, S-9, KC500 OR PHENOBARBITAL, Method: LIQUID SUSPENSION) “active; positive”; (Test System: E. COLI WP2, Strain/Indicator: WP2, Metabolic Activation: NONE, Method: SPOT) “active; positive”.

Take `CNc1ccc(Nc2c3ccccc3nc3ccccc23)cc1`: the mutagenic call under setting [3] is “active; positive”.

In the case of `C[C@]12C=CC(=O)C=C1CC[C@@H]1[C@@H]2C(=O)C[C@@]2(C)[C@H]1CC[C@]2(O)C(=O)CO`, the mutagenic call is, setting by setting: (Test System: AMES SALMONELLA TYPHIMURIUM, Strain/Indicator: TA98, Metabolic Activation: HAMSTER, LIVER, S-9, AROCLOR 1254 (10%), Method: STANDARD PLATE) “inactive; negative”; (Test System: AMES SALMONELLA TYPHIMURIUM, Strain/Indicator: TA98, Metabolic Activation: NONE, Method: STANDARD PLATE) “inactive; negative”; (Test System: AMES SALMONELLA TYPHIMURIUM, Strain/Indicator: TA98, Metabolic Activation: RAT, LIVER, S-9, AROCLOR 1254 (10%), Method: STANDARD PLATE) “inactive; negative”; (Test System: AMES SALMONELLA TYPHIMURIUM, Strain/Indicator: TA100, Metabolic Activation: HAMSTER, LIVER, S-9, AROCLOR 1254 (10%), Method: STANDARD PLATE) “inactive; negative”; under setting [2], “inactive; negative”; (Test System: AMES SALMONELLA TYPHIMURIUM, Strain/Indicator: TA100, Metabolic Activation: RAT, LIVER, S-9, AROCLOR 1254 (10%), Method: STANDARD PLATE) “inactive; negative”. The mutagenic call runs as follows: (Test System: AMES SALMONELLA TYPHIMURIUM, Strain/Indicator: TA1535, Metabolic Activation: HAMSTER, LIVER, S-9, AROCLOR 1254 (10%), Method: STANDARD PLATE) “inactive; negative”; (Test System: AMES SALMONELLA TYPHIMURIUM, Strain/Indicator: TA1535, Metabolic Activation: NONE, Method: STANDARD PLATE) “inactive; negative”; (Test System: AMES SALMONELLA TYPHIMURIUM, Strain/Indicator: TA1535, Metabolic Activation: RAT, LIVER, S-9, AROCLOR 1254 (10%), Method: STANDARD PLATE) “inactive; negative”; (Test System: AMES SALMONELLA TYPHIMURIUM, Strain/Indicator: TA1537, Metabolic Activation: HAMSTER, LIVER, S-9, AROCLOR 1254 (10%), Method: STANDARD PLATE) “inactive; negative”; under setting [3], “inactive; negative”; (Test System: AMES SALMONELLA TYPHIMURIUM, Strain/Indicator: TA1537, Metabolic Activation: RAT, LIVER, S-9, AROCLOR 1254 (10%), Method: STANDARD PLATE) “inactive; negative”. In addition, the mutagenic call runs as follows: (Test System: AMES SALMONELLA TYPHIMURIUM, Strain/Indicator: TA1538, Metabolic Activation: HAMSTER, LIVER, S-9, AROCLOR 1254 (10%), Method: STANDARD PLATE) “inactive; negative”; (Test System: AMES SALMONELLA TYPHIMURIUM, Strain/Indicator: TA1538, Metabolic Activation: NONE, Method: STANDARD PLATE) “inactive; negative”; (Test System: AMES SALMONELLA TYPHIMURIUM, Strain/Indicator: TA1538, Metabolic Activation: RAT, LIVER, S-9, AROCLOR 1254 (10%), Method: STANDARD PLATE) “inactive; negative”; (Test System: MOUSE LYMPHOMA, Strain/Indicator: L5178Y (TK+/TK-), Metabolic Activation: NONE, Method: SUSPENSION/PLATE) “inactive; negative. reevaluation of results: negative”; (Test System: MOUSE LYMPHOMA, Strain/Indicator: L5178Y (TK+/TK-), Metabolic Activation: RAT, LIVER, S-9, AROCLOR 1254, Method: SUSPENSION/PLATE) “inactive; negative. reevaluation of results: inconclusive”.

For `O=[N+]([O-])c1ccc(I)c([N+](=O)[O-])c1`, the mutagenic call runs as follows: (Test System: AMES SALMONELLA TYPHIMURIUM, Strain/Indicator: TA98(1,8-DNP6), Metabolic Activation: NONE, Method: PREINCUBATION) “active; positive”; (Test System: AMES SALMONELLA TYPHIMURIUM, Strain/Indicator: TA98(NR), Metabolic Activation: NONE, Method: PREINCUBATION) “active; positive”; under setting [1], “active; positive”.

With `Oc1cc(Cl)c(O)cc1Cl`, the mutagenic call by setting is: (Test System: AMES SALMONELLA TYPHIMURIUM, Strain/Indicator: TA98, Metabolic Activation: NONE) “inactive; negative”; (Test System: AMES SALMONELLA TYPHIMURIUM, Strain/Indicator: TA98, Metabolic Activation: RAT, LIVER, S-9, AROCLOR 1254) “inactive; negative”; (Test System: AMES SALMONELLA TYPHIMURIUM, Strain/Indicator: TA100, Metabolic Activation: NONE) “inactive; negative”; (Test System: AMES SALMONELLA TYPHIMURIUM, Strain/Indicator: TA100, Metabolic Activation: RAT, LIVER, S-9, AROCLOR 1254) “inactive; negative”; (Test System: AMES SALMONELLA TYPHIMURIUM, Strain/Indicator: TA102, Metabolic Activation: NONE) “inactive; negative”; (Test System: AMES SALMONELLA TYPHIMURIUM, Strain/Indicator: TA102, Metabolic Activation: RAT, LIVER, S-9, AROCLOR 1254) “inactive; negative”. Besides, the mutagenic call is “inactive; negative” (Test System: AMES SALMONELLA TYPHIMURIUM, Strain/Indicator: TA104, Metabolic Activation: NONE) and “inactive; negative” (Test System: AMES SALMONELLA TYPHIMURIUM, Strain/Indicator: TA104, Metabolic Activation: RAT, LIVER, S-9, AROCLOR 1254).

The values are drawn from PubChem BioAssay AID1259407 (Chemical Carcinogenesis Research Information System (CCRIS), 2018).
